In patent US9808500B2, “Antithrombotic nanoparticle” (Washington University, priority 2009, dated 2017):
Entries after “also recorded” stand apart in the source; their conditions may differ.

Assays:
thrombin [1] = target: T1, thrombin (Homo sapiens, UniProt P00734); conditions: thrombin inhibitor, quoted; cited from earlier work
thrombin [2] = target: T1, thrombin; assay: Thrombin inhibition and inhibition kinetics with chromogenic substrate Chromozym TH; assay type: biochemical
Method: Tosyl-Gly-Pro-Arg-4 nitranilide acetate (Chromozym TH, Roche Applied Science) was employed to assay PPACK inhibition of thrombin and plasmin in accordance with previously described methods [31]. 100 μL of 12 nM thrombin was incubated for one minute at room temperature with selected amounts of PPACK or PPACK-nanoparticles or with an excess of bare nanoparticles. 500 μL (100 μM) of the thrombin substrate Tosyl-Gly-Pro-Arg-4 nitranilide acetate were added to terminate the PPACK-thrombin interaction. In accordance with previous work, thrombin activity against the substrate was measured via absorbance at 405 nm. The rate of change in absorbance at 405 nm was taken as representative of the amount of uninhibited thrombin available to cleave Chromozym TH.
In additional experiments, Chromozym TH was used to determine the kinetics of the PPACK-thrombin interaction. […] Thrombin activity was measured as above. Kinetics of inhibition were characterized in accordance with the work of Kettner and Shaw [26]. The assay yielded the apparent pseudo-first-order rate constant for thrombin inactivation (kapp). Modeling inhibition according to equation (1), an estimate of the second order constants (k2/Ki) for the PPACK-thrombin interaction and the PPACK nanoparticle-thrombin interaction were obtained via equation (2). To best obtain a pseudo-first-order reaction, thrombin dilution was maximized within the limits set by the sensitivity of the Chromozym TH assay.

C57BL/6 mice [3] = assay: Photochemical (rose bengal) injury, thrombotic occlusion of the carotid artery; assay type: in vivo, mouse; conditions: for time to occlusion of the carotid artery: i.v. bolus 10 min before rose bengal, heparin 0.125 mg/kg, PPACK 12.5 mg/kg, nanoparticles 1 mL/kg; for effect on occlusion time / thrombus formation (in words): photochemical injury, C57BL/6 mice
Excerpt: As described in previous work, 10-12 week old male C57BL/6 mice (weight 25-30 g) were subjected to photochemical injury of the carotid. After anesthetization with sodium pentobarbital, the mice were secured under a dissecting microscope for isolation of the right common carotid artery via midline cervical incision. An ultrasonic flow probe (model 0.5 VB Transonic Systems, Ithaca, N.Y.) was applied to the artery to measure flow for the duration of each experiment. A 1.5 mW 540 nm HeNe laser (Melles Griot, Carlsbad, Calif.) was focused on the artery at a distance of 6 cm. […] In additional control experiments (n=4), no treatment preceded injection of the rose bengal dye. Occlusion of the carotid artery was noted and experiments were terminated upon the stable (>5 minutes) maintenance of zero flow.

thrombin [4] = target: T1, thrombin; conditions: literature value; cited from earlier work
mice = conditions: cited from earlier work
[5] = in vivo; cited from earlier work
[6] = Stability of the nanoparticle formulation (HPLC of unattached PPACK after storage); assay type: physicochemical; conditions: PPACK particles: after dialysis and one week storage at four degrees
Method: To functionalize particles containing 1,2-distearoyl-sn-glycero-3-phosphoethanolamine-N-[carboxy(polyethylene glycol)-2000] with PPACK, amine-carboxyl coupling was employed to conjugate the PPACK N-terminus to the bare carboxyl groups on the synthesized particles. After one hour mixing of 1 mL emulsion with 12.5 mg PPACK, EDCI 1-[3-(Dimethylamino)propyl]-3-ethylcarbodiimide methiodide (2 mg) was added for overnight coupling. Excess PPACK and EDCI were removed by dialysis (MWCO 3000-5000). Particle size was assessed before and after PPACK conjugation as described above. Extent of PPACK coupling was determined by reverse-phase HPLC quantification of uncoupled PPACK after centrifugation of nanoparticles with Cleanascite lipid adsorption reagent (Agilent Technologies). […] PPACK was detected via phenylalanine absorbance (258 nm). Zeta potential measurements, taking into consideration hydrodynamic diameter measurements, were used for further verification of PPACK coupling (Brookhaven Instruments).

C57BL/6 mice [7] = conditions: heparin 0.125 mg/kg, rose bengal model; cited from earlier work

For `CN[C@H](Cc1ccccc1)C(=O)N1CCC[C@H]1C(=O)N[C@H](C=O)CCCN=C(N)N` [Efegatran], the Ki (thrombin [1]) is listed as 1.2 nM.

In the case of `NC(N)=NCCC[C@H](NC(=O)[C@@H]1CCCN1C(=O)[C@H](N)Cc1ccccc1)C(=O)CCl` [PPACK, D-phenylalyl-L-prolyl-L-arginyl-chloromethyl ketone], the “effect on thrombin activity against Chromozym TH (in words)” value (thrombin [2]) is reported as “no significant thrombin activity apparent beyond a ten-fold excess”, the “pseudo-first-order rate constant kapp” value (thrombin [2]; 0.92 nM thrombin, 5 nM PPACK or 0.3 pM PPACK nanoparticles) is reported as 1.824 min⁻¹ and the “second order constant (k2/Ki), per PPACK” value (thrombin [2]; free PPACK or PPACK on the particles, 5 nM PPACK) is reported as 6.08e+06 M⁻¹ s⁻¹. The “decay constant of thrombin activity with inhibitor concentration” value (thrombin [2]; one-minute incubation, per PPACK concentration) was 0.026 nM⁻¹, the “time to occlusion of the carotid artery” value (C57BL/6 mice [3]) was 71 ± 19 min and the “effect on occlusion time / thrombus formation (in words)” value (C57BL/6 mice [3]) was “allowed a steady approach to complete occlusion; also recorded: did not delay occlusion time”. The “second order constant found by Kettner and Shaw” value (thrombin [4]) was 2e+07 M⁻¹ s⁻¹, the LD50 (mice) was “greater than 50 mg/kg” and the long-term toxicity (mice) was “no long-term toxicity”. For the same molecule, the distribution half-life [5] was 7 min and the “elimination (clearance) half-life” value [5] was 2.9 min.

In the case of “Bivalirudin nanoparticles: Bivalirudin conjugated at the N-terminus to Carboxy-PEG functionalized perfluorocarbon nanoparticles”, the “stability of the nanoparticle formulation” value [6] is reported as “analogous coupling and stability characteristics” and the “effect on occlusion time / thrombus formation (in words)” value (C57BL/6 mice [3]) is reported as “Bivalirudin nanoparticles did”.

In the case of “Bivalirudin: short synthetic peptide, specific and reversible direct thrombin inhibitor”, the “effect on thrombin activity against Chromozym TH (in words)” value (thrombin [2]) is reported as “less active, but more specific than PPACK” and the “effect on occlusion time / thrombus formation (in words)” value (C57BL/6 mice [3]) is reported as “did not significantly extend occlusion time”.

In the case of Heparin, the “time to occlusion of the carotid artery” value (C57BL/6 mice [3]) is given as 102 ± 13 min, the “effect on occlusion time / thrombus formation (in words)” value (C57BL/6 mice [3]) is given as “formation of a stable thrombus was noticeably delayed” and the “occlusion time in previous trials” value (C57BL/6 mice [7]) is given as 97 ± 18 min.
